Test results reported in ChEMBL document CHEMBL3132854, “Synthesis and anticancer activity evaluation of resveratrolchalcone conjugates” (2014).

What was measured:
[1] = test system: DU-145; experiment: Growth inhibition of human DU145 cells assessed as cell growth at 10 uM by sulforhodamine B assay relative to control; values are per cent of control
[2] = test system: ACHN; experiment: Growth inhibition of human ACHN cells assessed as cell growth at 10 uM by sulforhodamine B assay relative to control; values are per cent of control
[3] = test system: SK-OV-3; experiment: Growth inhibition of human SKOV3 cells assessed as cell growth at 10 uM by sulforhodamine B assay relative to control; values are per cent of control
[4] = test system: OVCAR-3; experiment: Growth inhibition of human OVCAR3 cells assessed as cell growth at 10 uM by sulforhodamine B assay relative to control; values are per cent of control
[5] = test system: SK-MEL-28; experiment: Growth inhibition of human SK-MEL-28 cells assessed as cell growth at 10 uM by sulforhodamine B assay relative to control; values are per cent of control
[6] = test system: MOLT-4; experiment: Growth inhibition of human MOLT4 cells assessed as cell growth at 10 uM by sulforhodamine B assay relative to control; values are per cent of control
[7] = test system: LOX IMVI; experiment: Growth inhibition of human LOXIMVI cells assessed as cell growth at 10 uM by sulforhodamine B assay relative to control; values are per cent of control
[8] = test system: MDA-MB-435; experiment: Growth inhibition of human MDA-MB-435 cells assessed as cell growth at 10 uM by sulforhodamine B assay relative to control; values are per cent of control
[9] = test system: OVCAR-8; experiment: Growth inhibition of human OVCAR8 cells assessed as cell growth at 10 uM by sulforhodamine B assay relative to control; values are per cent of control
[10] = test system: PC-3; experiment: Growth inhibition of human PC3 cells assessed as cell growth at 10 uM by sulforhodamine B assay relative to control; values are per cent of control
[11] = test system: SNB-19; experiment: Growth inhibition of human SNB19 cells assessed as cell growth at 10 uM by sulforhodamine B assay relative to control; values are per cent of control
[12] = test system: RPMI-8226; experiment: Growth inhibition of human RPMI8226 cells assessed as cell growth at 10 uM by sulforhodamine B assay relative to control; values are per cent of control
[13] = Growth inhibition of human HOP92 cells assessed as cell growth at 10 uM by sulforhodamine B assay relative to control; values are per cent of control; conditions: HOP-92
[14] = Growth inhibition of human HCC2998 cells assessed as cell growth at 10 uM by sulforhodamine B assay relative to control; values are per cent of control; conditions: HCC 2998
[15] = test system: COLO 205; experiment: Growth inhibition of human COLO205 cells assessed as cell growth at 10 uM by sulforhodamine B assay relative to control; values are per cent of control
[16] = test system: T47D; experiment: Growth inhibition of human T47D cells assessed as cell growth at 10 uM by sulforhodamine B assay relative to control; values are per cent of control
[17] = test system: NCI-H226; experiment: Growth inhibition of human NCI-H226 cells assessed as cell growth at 10 uM by sulforhodamine B assay relative to control; values are per cent of control
[18] = Growth inhibition of human RXF393 cells assessed as cell growth at 10 uM by sulforhodamine B assay relative to control; values are per cent of control; conditions: RXF 393
[19] = test system: U-251; experiment: Growth inhibition of human U251 cells assessed as cell growth at 10 uM by sulforhodamine B assay relative to control; values are per cent of control
[20] = test system: NCI-H460; experiment: Growth inhibition of human NCI-H460 cells assessed as cell growth at 10 uM by sulforhodamine B assay relative to control; values are per cent of control
[21] = Growth inhibition of human UO31 cells assessed as cell growth at 10 uM by sulforhodamine B assay relative to control; values are per cent of control; conditions: UO-31
[22] = test system: NCI-H23; experiment: Growth inhibition of human NCI-H23 cells assessed as cell growth at 10 uM by sulforhodamine B assay relative to control; values are per cent of control
[23] = test system: SW-620; experiment: Growth inhibition of human SW620 cells assessed as cell growth at 10 uM by sulforhodamine B assay relative to control; values are per cent of control
[24] = test system: SK-MEL-2; experiment: Growth inhibition of human SK-MEL-2 cells assessed as cell growth at 10 uM by sulforhodamine B assay relative to control; values are per cent of control
[25] = test system: A498; experiment: Growth inhibition of human A498 cells assessed as cell growth at 10 uM by sulforhodamine B assay relative to control; values are per cent of control
[26] = test system: NCI-H322M; experiment: Growth inhibition of human NCI-H322M cells assessed as cell growth at 10 uM by sulforhodamine B assay relative to control; values are per cent of control
[27] = test system: MCF7; experiment: Growth inhibition of human MCF7 cells assessed as cell growth at 10 uM by sulforhodamine B assay relative to control; values are per cent of control
[28] = test system: K562; experiment: Growth inhibition of human K562 cells assessed as cell growth at 10 uM by sulforhodamine B assay relative to control; values are per cent of control
[29] = test system: UACC-62; experiment: Growth inhibition of human UACC62 cells assessed as cell growth at 10 uM by sulforhodamine B assay relative to control; values are per cent of control
[30] = test system: HT-29; experiment: Growth inhibition of human HT-29 cells assessed as cell growth at 10 uM by sulforhodamine B assay relative to control; values are per cent of control
[31] = test system: BT-549; experiment: Growth inhibition of human BT549 cells assessed as cell growth at 10 uM by sulforhodamine B assay relative to control; values are per cent of control

SMILES	growth, % of control at 10 µM [1] [%]	growth, % of control at 10 µM [2] [%]	growth, % of control at 10 µM [3] [%]	growth, % of control at 10 µM [4] [%]	growth, % of control at 10 µM [5] [%]	growth, % of control at 10 µM [6] [%]	growth, % of control at 10 µM [7] [%]	growth, % of control at 10 µM [8] [%]	growth, % of control at 10 µM [9] [%]	growth, % of control at 10 µM [10] [%]	growth, % of control at 10 µM [11] [%]	growth, % of control at 10 µM [12] [%]	growth, % of control at 10 µM [13] [%]	growth, % of control at 10 µM [14] [%]	growth, % of control at 10 µM [15] [%]	growth, % of control at 10 µM [16] [%]	growth, % of control at 10 µM [17] [%]	growth, % of control at 10 µM [18] [%]	growth, % of control at 10 µM [19] [%]	growth, % of control at 10 µM [20] [%]	also measured
COc1ccc(C(=O)/C=C/c2ccc(/C=C/c3ccc(F)cc3)cc2)cc1	109	102	99.1	112	112	96.2	97.4	98.9	106	106	100	104	108	94.1	107	93.8	109	117	100	104	growth, % of control at 10 µM [21]: 94.4%; growth, % of control at 10 µM [22]: 98.1%; growth, % of control at 10 µM [23]: 104%; growth, % of control at 10 µM [24]: 96.2%; growth, % of control at 10 µM [25]: 87.5%; growth, % of control at 10 µM [26]: 99.6%; growth, % of control at 10 µM [27]: 93.9%; growth, % of control at 10 µM [28]: 86.3%; growth, % of control at 10 µM [29]: 104%; growth, % of control at 10 µM [30]: 104%; growth, % of control at 10 µM [31]: 101%
COc1ccc(C(=O)/C=C/c2ccc(/C=C/c3ccc(Cl)cc3)cc2)cc1	108	94.6	99.3	101	104	92.6	105	103	104	98.7	97.6	102	102	105	107	81.6	101	116	101	102	growth, % of control at 10 µM [21]: 102%; growth, % of control at 10 µM [22]: 103%; growth, % of control at 10 µM [23]: 99.8%; growth, % of control at 10 µM [24]: 106%; growth, % of control at 10 µM [25]: 78.1%; growth, % of control at 10 µM [26]: 76.6%; growth, % of control at 10 µM [27]: 93%; growth, % of control at 10 µM [28]: 87.8%; growth, % of control at 10 µM [29]: 92.7%; growth, % of control at 10 µM [30]: 104%; growth, % of control at 10 µM [31]: 103%
COc1ccc(C(=O)/C=C/c2ccc(/C=C/c3cc(OC)c(OC)c(OC)c3)cc2)cc1	68.4	68.1	102	41.4	84.7	9.62	24.7	41	28.4	52.2	74.4	-0.63	51.9	94.1	68.2	43.4	72.4	71.3	36.3	59.6	growth, % of control at 10 µM [21]: 40.5%; growth, % of control at 10 µM [22]: 43.5%; growth, % of control at 10 µM [23]: 39.3%; growth, % of control at 10 µM [24]: 65.1%; growth, % of control at 10 µM [25]: 80%; growth, % of control at 10 µM [26]: 64.8%; growth, % of control at 10 µM [27]: 30.6%; growth, % of control at 10 µM [28]: 14.4%; growth, % of control at 10 µM [29]: 53.6%; growth, % of control at 10 µM [30]: 36.2%; growth, % of control at 10 µM [31]: 41.6%
